Data on two molecules can be found in patent US20090203778A1, “FATTY ACID ANALOGUES, I.E. INCLUDING DHA DERIVATIVES FOR USES AS A MEDICAMENT” (priority 2005, published 2009).

The test system of data set [1] is adipose prone mice of the C57BL/6J strain. Nature of the data set: Animal model of metabolic syndrome, adipose prone mice on high-fat diet, 4 months of dietary interventions. It counts as in vivo. The following applies: for Body weight / Body wt. gain / NEFA / Insulin / TAGs: 4 months; for AUCglucose: intraperitoneal glucose tolerance test; for Insulin: plasma; for TAGs: serum. As to the method:
An animal model of the metabolic syndrome using the adipose prone mice of the C57BL/6J strain was used to document effects on typical laboratory and pathological anatomical features common for the metabolic syndrome. When given a high fat diet containing about 60% of fat, the animals are getting obese developing high insulin plasma levels, pathological glucose tolerance test, elevated serum triglycerides and non-esterified fatty acids, and fat liver. All experiments were performed on male C57BL/6 mice, either a substrain C57BL/N (supplier: Charles River, Germany, n=160, experiments A-C, see below), or a substrain C57BL/6J (supplier: the Jackson laboratory, Bar Harbor, Me., USA, n=32, experiment D). Total numbers of animals used were higher (n=170 and 36, respectively), because of culling. In the latter case, animals were bred for several generations (<20) at the Institute of Physiology. At the beginning of the treatment, animals were 14-week-old and their body weight range was 23.6-27.1 g. One week before the study start, animals were sorted according to their body weight and assigned to subgroups (n=8) of similar mean body weight. […] The animals eliminated from the study at this stage were sacrificed by cervical dislocation. Complete health check of mice was performed by the supplier Charles River and at the start of study serological tests were performed by ANLAB (Prague, Czech Republic). In addition, regular health checks were performed in the animal house in 3-mo-intervals using sentinel mice and serological examinations (ANLAB). In all the tests, the animals were free of specific pathogens. […] All these compounds were in the form of ethyl esters, provided by Pronova Biocare a.s. in sealed containers. Chemical composition of the PRB-compounds was unknown to the laboratory performing the experiments (Institute of Physiology, Academy of Sciences Prague, Czech Republic). After arrival, the PRB-compound were stored in a refrigerator in original containers. The containers were opened just before preparation of the experimental diets. Diets were kept in plastic bags flushed by nitrogen and stored at −70° C. in small aliquots sufficient for feeding animals for one week. Fresh ratios were given in 2-day intervals or daily. The study was based on 4 individual experiments. […] In each experiment, a subgroup of plain cHF diet-fed mice was included and served as a control. Mice were caged in groups of 4 and fed standard chow diet until 3 mo of age, when animals (n=8-13) were randomly assigned to the different test diets. […] Animals were sacrificed after 4 months on the experimental diets, at 7 mo of age, and the end-point analysis were performed.

The target in data set [2] is T1, PPARγ (Homo sapiens, UniProt P37231).
T1 construct: For full length PPAR transfection studies, each well received 5 μg reporter construct; expressed in transfected cells; host or cells: COS-1 cells (adipocytes transfected with pSG5-PPARγ are also described)
T1 sequence (P37231 1-505): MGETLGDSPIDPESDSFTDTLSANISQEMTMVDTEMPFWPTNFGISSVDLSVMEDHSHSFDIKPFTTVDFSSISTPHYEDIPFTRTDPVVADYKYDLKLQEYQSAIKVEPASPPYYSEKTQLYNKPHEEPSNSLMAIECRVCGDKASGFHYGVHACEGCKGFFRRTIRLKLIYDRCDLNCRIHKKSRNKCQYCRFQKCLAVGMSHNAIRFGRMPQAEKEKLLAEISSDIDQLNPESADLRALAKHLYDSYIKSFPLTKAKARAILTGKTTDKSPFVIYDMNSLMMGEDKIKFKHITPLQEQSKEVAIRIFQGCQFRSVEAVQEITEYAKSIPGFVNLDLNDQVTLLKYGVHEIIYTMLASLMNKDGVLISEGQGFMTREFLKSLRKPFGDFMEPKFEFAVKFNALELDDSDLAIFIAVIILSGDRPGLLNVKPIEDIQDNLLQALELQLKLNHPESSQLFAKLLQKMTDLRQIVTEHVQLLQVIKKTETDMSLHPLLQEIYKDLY
The data set is described as follows: Affinity testing in transfected cells (luciferase release). It counts as cell-based. The following applies: 10 μM, FIG. 3. The procedure:
Release of luciferase is correlated to transcription of genes. Binding of a ligand to a nuclear receptor such as PPARγ induces transcription of the respective gene thereby releasing luciferase. This technique therefore provides a measure of ligand affinity to the receptor as well as activation of the responsible gene.
Transient transfection of COS-1 cells was performed in 6-well plates as described by Graham and van der Eb (Graham). For full length PPAR transfection studies, each well received 5 μg reporter construct, 2.5 μg pSV-β-galactosidase as an internal control, 0.4 μg pSG5-PPARγ2. The cells were harvested after 72 h, and the luciferase activity was measured according to the protocol (Promega). The luciferase activity was normalised against β-galactosidase activity. The adipocytes were transfected at D11 of differentiation using 16 μL LipofectaminPlus reagent, 4 μl Lipofectamine (Life Technologies Inc.), 0.2 μg pSG5-PPARγ, and 100 ng pTK Renilla luciferase as control of transfection afficiency. […] The luciferase activities were measured as recommended by the manufacturer (Dual Luciferase assay, Promega). […]
Fatty acids (BRL or DHA) and PRB-1 (stock solutions) were solubilized to 0.1 M final concentration in DMSO. […] Luciferase activity was measured using a luminometer (TD-20/20 luminometer; Turner Designs, Sunnycvale, Calif.) and normalized against protein content.

The subject of data set [3] is liver steatosis in mice fed high fat diet. Nature of the data set: Testing of DHA derivatives on liver fat (histology). In kind it is in vivo. The following applies: eosin-hematoxylin stained liver. An excerpt: Tissue samples from animals in the experiments with DHA derivatives was histologically analysed. After paraffination, tissue samples from liver, adipose tissue, skeletal muscle, pancreas, and kidney were stained with eosin-hematoxylin.

Data set [4] can be described thus: Analysis of intracellular free (non-esterified) fatty acids in liver of animals fed PRB-1. The following applies: liver tissue, 1.5% of the fat content in diet for 8 weeks. It counts as in vivo, mice. The procedure: Liver tissue from animals fed PRB-1 was analysed with respect to free unesterified fatty acids. The animals were recruited from Experiment 4 (pharmacodynamic effects of DHA derivatives in an animal model of metabolic syndrome). The animals had been given DHA (15% of fat content of the diet) or the DHA-derivative (1.5% of the fat content in their diet) for 8 weeks and were supposed to be in a steady-state situation with stable levels of DHA and the DHA-derivative intracellularly. Liver tissue was chosen due to the fact that the metabolisation rate is very high in liver.
The liver samples were homogenized in cold PBS buffer, and extracted immediately with chloroform:methanol (2:1) containing 0.2 mM butylated hydroxytoluene (BHT) using cis-10-heptadecenoic acid as internal standard. […] Total protein content was measured using Bio-Rad method after homogenization.
Agilent 1100 system was used for reverse phase column (Supelco Ascentis C18 column, 25 cm×4.6 mm, i.d. 5 μm) separation within 22 min. […] The column elute was identified and quantified in the negative electrospray ionisation applying multiple reaction monitoring mode by triple tandem quadrapole mass/mass (ABI Qtrap-4000). […] The quadratic regression standard curve was used for quantification after internal standard calibration.

The mark [5] stands for this setting: 0.15% of fat content of cHF diet.
[6] abbreviates: 0.5% of fat content of cHF diet.
The mark [7] stands for this setting: 1.5% of fat content of cHF diet.

For the molecule `CC/C=C\C/C=C\C/C=C\C/C=C\C/C=C\C/C=C\CCC(=O)O` [DHA, (all-Z)-4,7,10,13,16,19-docosahexaenoic acid], in data set [1] (setting [5]), the Fasted glucose turned out to be 141 ± 10 mg/dL, the Body weight came out at 48.3 ± 0.6 grams, the “Body wt. gain” value was 24.3 ± 0.8 grams and the NEFA is 0.96 ± 0.07 mmol/L. Besides, in data set [1] (setting [5]), the AUCglucose is 1477 ± 214 mM × 180 min, the Insulin came to 4.31 ± 0.39 ng/mL and the TAGs was determined as 1.50 ± 0.13 mmol/L. In data set [1] (setting [6]), this molecule registered a Fasted glucose of 136 ± 8 mg/dL, a Body weight of 46.9 ± 0.7 grams, a Body wt. gain of 22.9 ± 0.7 grams and an NEFA of 0.89 ± 0.03 mmol/L. In data set [1] (setting [6]), this molecule displayed an AUCglucose of 1816 ± 182 mM × 180 min, an Insulin of 5.82 ± 0.47 ng/mL and a TAGs of 1.78 ± 0.08 mmol/L. In data set [1] (setting [7]), this molecule returned a Fasted glucose of 138 ± 7 mg/dL, a Body weight of 47.1 ± 0.7 grams, a Body wt. gain of 23.0 ± 0.8 grams and an NEFA of 0.98 ± 0.07 mmol/L. In data set [1] (setting [7]), this molecule registered an AUCglucose of 2132 ± 288 mM × 180 min, an Insulin of 6.55 ± 0.31 ng/mL and a TAGs of 1.91 ± 0.26 mmol/L.

In data set [1] (setting [5]), `CC/C=C\C/C=C\C/C=C\C/C=C\C/C=C\C/C=C\CC(C)C(=O)OCC` (stereo not drawn) [PRB-1, α-methyl DHA EE] registered a Fasted glucose of 126 ± 15 mg/dL, a Body weight of 47.2 ± 1.3 grams, an NEFA of 0.62 ± 0.04 mmol/L and an AUCglucose of 1291 ± 172 mM × 180 min. Besides, the TAGs in data set [1] (setting [5]) was 1.75 ± 0.08 mmol/L. For the same molecule, in data set [1] (setting [6]), the Fasted glucose was 131 ± 7 mg/dL, the Body weight amounted to 47.4 ± 0.6 grams, the Body wt. gain came to 23.8 ± 0.5 grams and the NEFA was found to be 0.73 ± 0.04 mmol/L. In addition, in data set [1] (setting [6]), the AUCglucose is reported as 1596 ± 205 mM × 180 min, the Insulin is given as 3.93 ± 0.59 ng/mL and the TAGs turned out to be 2.03 ± 0.22 mmol/L. In data set [1] (setting [7]), this molecule showed a Fasted glucose of 130 ± 14 mg/dL, a Body weight of 44.0 ± 1.5 grams, a Body wt. gain of 20.2 ± 1.3 grams and an NEFA of 0.63 ± 0.03 mmol/L. In data set [1] (setting [7]), the TAGs stood at 1.58 ± 0.08 mmol/L. The “release of luciferase from transfected cells” value in data set [2] is “high release of luciferase”. The “degree of fat liver (liver steatosis), histology” value in data set [3] is recorded as “low degree of fat liver”. For the same molecule, the “concentration of the DHA-derivative (free unesterified fatty acid) in the liver cells” value in data set [4] is “about 10 μg per g of total amount of protein”.
